In patent US5763396A, “Method of treating or preventing type 1 diabetes by oral administration of insulin” (AutoImmune Inc., priority 1995, dated 1998):
Values joined by “and” are separate entries in the source; they are usually repeats but may differ in a detail not shown here. Identical values can stand only once. “Also recorded” adds a separate entry of the source.

Tests used:
Assay type in all cases: in vivo
NOD mice [1] = experiment: Effect of feeding porcine insulin on spontaneous diabetes in NOD mice (Example 1)
Source text: NOD (non-obese diabetic mice) were obtained from Taconic Laboratories (Germantown, Mass.) at 4 weeks of age. There were a total of 30 animals in each of the groups mentioned below at the beginning of the experiment. At […] of age, animals were orally administered Porcine insulin (Novo Laboratories, Danbury, Conn.). Each animal received two treatments orally twice a week until 9 weeks of age. The mice were fed either saline (control) or 10 micrograms, 100 micrograms, or 1 milligram of Porcine insulin. The animals were fed (gavaged) with an 18 gauge ball-point needle (Popper and Sons, Inc., New Hyde Park, N.Y.). Beginning at 10 weeks the animals were then fed once a week for a total of 33 weeks. Beginning at 12 weeks the urine was tested weekly for the presence of glucose using Glucosuria test tape (Eli Lilly, Indianapolis, Ind.). If an animal tested 3+ or higher on the glucose urine test, a serum sample was taken and blood glucose measured using a glucose analyzer (Beckman). If the blood glucose was 220 or higher, the animals were classified as diabetic and then sacrificed.

NOD mice [2] = experiment: Glucose post oral insulin in fasting 7 week NOD mice (Example 2); conditions: for blood glucose over the next 24 hours / blood glucose change after feeding (protein load) / drop in blood glucose after feeding: 1 mg oral; for blood glucose over the next 24 hours: animals in fasting state
Experimental: In order to determine whether any endocrinologic (i.e. direct lowering of blood sugar) effects occurred following the feeding of insulin, 7 week old NOD mice (5 mice per group) were fed 1 mg of porcine insulin or 1 mg of myelin basic protein (obtained from Pel Freez, Rogers, Ark.) as a control protein. Blood glucose was then measured over the next 24 hour period. As a positive control, a separate group of animals were injected subcutaneously with 20 micrograms of Porcine insulin. All animals were kept in the fasting state.

NOD mice [3] = experiment: Insulitis in insulin-fed NOD mice (preliminary experiments); conditions: fed 1 mg insulin vs PBS-fed NOD mice, data not shown
Source text: Therefore, oral administration of insulin to NOD mice appeared to be affecting the infiltration of immune system cells into the pancreas and thus halting disease progression by preserving beta cell function.

NOD mice [4] = experiment: Effect of aerosol administration of insulin on diabetes in NOD mice (Example 4); conditions: aerosol by nebulizer, 0 to 1 mg
Experimental: Insulin (0 to 1 mg as in Examples 1 and 2) will be administered to NOD mice as described above in Examples 1 and 2 except in aerosol form by nebulizer.

NOD mice [5] = experiment: Treatment of initial stages of diabetes in NOD mice (Example 5); conditions: oral and aerosol, 0 to 1 mg, hyperglycemic NOD mice
Experimental: Insulin (0 to 1 mg as in Examples 1 and 2) will be administered to NOD mice which are suffering from hyperglycemia in an oral and aerosol form. The treatments will begin by weeks 12-20 of age, by which the serum glucose levels are at hyperglycemic concentrations in a certain percentage of animals prior to onset of diabetes.

[6] = 20 micrograms porcine insulin subcutaneously, fasting 7 week NOD mice

Substance | development of diabetes (NOD mice [1]; NOD mice fed 1 mg porcine insulin orally, diabetic = blood glucose 220 or higher) | development of diabetes (NOD mice [1]; NOD mice fed 10 micrograms porcine insulin orally) | development of diabetes (NOD mice [1]; NOD mice fed 100 micrograms porcine insulin orally) | incidence of diabetes (NOD mice [1]; all doses of orally administered insulin tested (10 micrograms to 1 mg)) | blood sugar on 10 representative animals (NOD mice [1]; fed 1 mg insulin, none diabetic, individual animals) | blood sugar in animals which developed diabetes (NOD mice [1]; fed 10 micrograms of insulin, individual animals) | blood sugar in animals that became diabetic (NOD mice [1]; fed 100 micrograms of insulin, individual animals) | endocrinologic (metabolic) effects (NOD mice [2]; 1 mg oral insulin, NOD mice) | blood glucose over the next 24 hours (NOD mice [2]) | blood glucose change after feeding (protein load) (NOD mice [2]; fasting 7 week NOD mice) | drop in blood glucose after feeding (NOD mice [2]; fasting 7 week NOD mice) | decrease in the glucose level (NOD mice [2]; [6]) | period over which glucose decrease persisted (NOD mice [2]; [6]) [h] | inflammatory immune system cells surrounding the pancreas (insulitis) (NOD mice [3]) | prevention of manifestation of symptoms (hyperglycemia) of Type 1 diabetes (NOD mice [4]) | beta cell function (NOD mice [5]) | serum glucose concentrations (NOD mice [5])
Porcine insulin | none of the mice went on to develop diabetes; also recorded: no diabetes developed; also recorded: None of the animals developed diabetes | diabetes developed | diabetes developed | lower incidence of diabetes; also recorded: reduced the numbers of these mice which subsequently went on to develop diabetes | 174 mg/dl and 128 mg/dl and 125 mg/dl (2×) and 145 mg/dl and 123 mg/dl and 136 mg/dl and 155 mg/dl and 115 mg/dl and 130 mg/dl | 330 mg/dL and 420 mg/dL and 315 mg/dL and 459 mg/dL and 520 mg/dL and 487 mg/dL | 500 mg/dL and 290 mg/dL and 600 mg/dL and 450 mg/dL | not a metabolic effect; also recorded: no endocrinologic (metabolic) effects | gradual decrease in blood glucose | increase in blood glucose | no drop in the blood glucose | approximately 80 mg % | 4 | fewer inflammatory immune system cells surrounding the pancreas | effective in preventing the manifestation of symptoms | preservation of beta cell function | reduction in serum glucose concentrations to near normal levels
myelin basic protein |  |  |  |  |  |  |  |  | gradual decrease in blood glucose | increase in blood glucose | no drop in the blood glucose |  |  |  |  |  | 
